# Measured values reported in patent US11033539B2, “Compounds of formulas (VII), (VIII), (IX), (XI), (XII), (XIII), and (XIV) as muscarinic receptor 4(M4) antagonists for treating neurological diseases” (Neurocrine Biosciences, Inc., priority 2015, dated 2021).
# Target: human M4 receptor (Homo sapiens (Human), UniProt P08173)
# Test: Radioligand (tritiated N-methylscopolamine) binding assay, M4
# Settings: Ki against the M4 receptor; membranes from CHO cells expressing human M4; tritiated N-methylscopolamine 1.5 nM; read-out: Ki
# How it was run: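 Inhibition of radioligand binding gave Ki. The assay used recombinant CHO membranes, 1.5 nM tracer, a 90 min/37 °C incubation and pH 7.4 buffer.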
# human M4 receptor, sequence (P08173 whole entry): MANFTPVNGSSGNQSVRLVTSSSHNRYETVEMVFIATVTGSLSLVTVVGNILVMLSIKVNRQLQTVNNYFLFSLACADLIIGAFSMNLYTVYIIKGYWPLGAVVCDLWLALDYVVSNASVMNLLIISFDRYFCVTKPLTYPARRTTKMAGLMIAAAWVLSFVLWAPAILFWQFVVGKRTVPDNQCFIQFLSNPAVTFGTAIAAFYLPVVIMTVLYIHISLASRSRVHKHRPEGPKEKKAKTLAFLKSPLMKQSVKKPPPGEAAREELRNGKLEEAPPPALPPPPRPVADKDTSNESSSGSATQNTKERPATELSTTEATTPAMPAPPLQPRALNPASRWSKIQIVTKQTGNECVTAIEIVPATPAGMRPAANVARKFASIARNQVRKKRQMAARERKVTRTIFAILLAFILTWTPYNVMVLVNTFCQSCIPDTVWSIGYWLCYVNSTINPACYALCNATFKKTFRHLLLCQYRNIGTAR
row,Compound,Ki [nM]
1,COc1ncccc1-c1cc2ncc(C(=O)NCCC3CCN(Cc4ccccc4)CC3)c(C)n2n1 [18-14],10 to 100
2,Cc1c(C(=O)NCCC2CCN(Cc3ccccc3)CC2)cnc2cc(-c3ccc(F)nc3)nn12 [18-15],100 to 1000
3,Cc1c(C(=O)NCCC2CCN(Cc3ccccc3)CC2)cnc2cc(-c3cccnc3F)nn12 [18-18],100 to 1000
4,COc1cc(C)c(-c2cc3ncc(C(=O)NCCC4CCN(Cc5ccccc5)CC4)c(C)n3n2)cn1 [18-19],100 to 1000
5,Cc1c(C(=O)NCCC2CCN(Cc3ccccc3)CC2)cnc2cc(-c3ccnc(F)c3)nn12 [18-20],10 to 100
6,"Cc1c(C(=O)NCCC2CCN(Cc3cccnc3)CC2)cnc2cc(-c3cccc(C(F)(F)F)c3)nn12 [19-1, 7-methyl-N-{2-[1-(pyridin-3-ylmethyl)piperidin-4-yl]ethyl}-2-[3-(trifluoromethyl)phenyl]pyrazolo[1,5-a]pyrimidine-6-carboxamide]",100 to 1000
7,Cc1c(C(=O)NCCC2CCN(Cc3cccc4c3OCCO4)CC2)cnc2cc(-c3ccccc3)nn12 [19-2],10 to 100
8,Cc1c(C(=O)NCCC2CCN(CC3CCCCC3)CC2)cnc2cc(-c3cccc(C(F)(F)F)c3)nn12 [19-3],100 to 1000
9,Cc1c(C(=O)NCCC2CCN(Cc3ccccc3O)CC2)cnc2cc(-c3ccccc3)nn12 [19-4],100 to 1000
10,Cc1c(C(=O)NCCC2CCN(Cc3ccncc3)CC2)cnc2cc(-c3cccc(C(F)(F)F)c3)nn12 [19-5],100 to 1000
11,Cc1c(C(=O)NCCC2CCN(Cc3ccccn3)CC2)cnc2cc(-c3cccc(C(F)(F)F)c3)nn12 [19-6],100 to 1000
12,COc1cccc(CN2CCC(CCNC(=O)c3cnc4cc(-c5ccccc5)nn4c3C)CC2)c1 [19-7],100 to 1000
13,Cc1c(C(=O)NCCC2CCN(Cc3ccc(O)cc3)CC2)cnc2cc(-c3ccccc3)nn12 [19-8],100 to 1000
14,"C[C@H]1CN(c2ncc(C#N)cn2)CCC1C(=O)NCCC1CCN(Cc2ccccc2)CC1 (stereo partly drawn) [20-1, (3R)-N-[2-(1-benzylpiperidin-4-yl)ethyl]-1-(5-cyanopyrimidin-2-yl)-3-methylpiperidine-4-carboxamide]",10 to 100
15,"C[C@@H]1CN(c2ncc(C#N)cn2)C[C@H](C)N1C(=O)NCCC1CCN(CC2CCCCC2)CC1 [21-1, (2R,6S)-4-(5-cyanopyrimidin-2-yl)-N-{2-[1-(cyclohexylmethyl)piperidin-4-yl]ethyl}-2,6-dimethylpiperazine-1-carboxamide]",10 to 100
16,C[C@@H]1CN(c2ncc(C#N)cn2)C[C@H](C)N1C(=O)NCCC1CCN(Cc2ccccn2)CC1 [21-3],100 to 1000
17,"C[C@@H]1CN(c2ncc(C#N)cn2)C[C@H](C)N1C(=O)NCCC1CCN(C2Cc3ccccc3C2)CC1 [21-4, (2R,6S)-4-(5-cyanopyrimidin-2-yl)-N-{2-[l-(2,3-dihydro-1H-inden-2-yl)piperidin-4-yl]ethyl}-2,6-dimethylpiperazine-1-carboxamide]",10 to 100
18,C[C@@H]1CN(c2ncc(C#N)cn2)C[C@H](C)N1C(=O)NCCC1CCN(CC2CCC2)CC1 [21-5],100 to 1000

row,Compound,Ki [nM]
1,CC(C)CN1CCC(CCNC(=O)N2[C@H](C)CN(c3ncc(C#N)cn3)C[C@@H]2C)CC1 [21-6],100 to 1000
2,CC(C)CCN1CCC(CCNC(=O)N2[C@H](C)CN(c3ncc(C#N)cn3)C[C@@H]2C)CC1 [21-8],100 to 1000
3,C[C@@H]1CN(c2ncc(C#N)cn2)C[C@H](C)N1C(=O)NCCC1CCN(CC2CCCCO2)CC1 (stereo partly drawn) [21-9],100 to 1000
4,C[C@@H]1CN(c2ncc(C#N)cn2)C[C@H](C)N1C(=O)NCCC1CCN(CC2(C)COC2)CC1 [21-10],100 to 1000
5,"C[C@@H]1CN(c2ncc(C#N)cn2)C[C@H](C)N1C(=O)NCCC1CCN(CC2CCCS(=O)(=O)C2)CC1 (stereo partly drawn) [21-11, (2R,6S)-4-(5-cyanopyrimidin-2-yl)-N-(2-{1-[(1,1-dioxo-1-thian-3-yl)methyl]piperidin-4-yl}ethyl)-2,6-dimethylpiperazine-1-carboxamide]",100 to 1000
6,C[C@@H]1CN(c2ncc(C#N)cn2)C[C@H](C)N1C(=O)NCCC1CCN(CC23CC(C2)C3)CC1 [21-12],100 to 1000
7,C[C@@H]1CN(c2ncc(C#N)cn2)C[C@H](C)N1C(=O)NCCC1CCN(CC23C4C5C6C4C2C6C53)CC1 (stereo partly drawn) [21-13],10 to 100
8,"C[C@@H]1CN(c2cnc(C(F)(F)F)nc2)C[C@H](C)N1C(=O)NCCC1CCN(Cc2ccccc2)CC1 [22-1, (2R,6S)—N-[2-(1-benzylpiperidin-4-yl)ethyl]-2,6-dimethyl-4-[2-(trifluoromethyl)pyrimidin-5-yl]piperazine-1-carboxamide]",10 to 100
9,C[C@@H]1CN(c2cc(F)c(F)cc2F)C[C@H](C)N1C(=O)NCCC1CCN(Cc2ccccc2)CC1 [22-6],10 to 100
10,C[C@@H]1CN(c2ccc(Cl)nc2)CCN1C(=O)NCCC1CCN(Cc2ccccc2)CC1 [22-11],10 to 100
11,COc1cc(N2CCN(C(=O)NCCC3CCN(Cc4ccccc4)CC3)[C@H](C)C2)ccn1 [22-16],10 to 100
12,C[C@@H]1CN(c2ccnc(F)c2)CCN1C(=O)NCCC1CCN(Cc2ccccc2)CC1 [22-18],10 to 100
13,C[C@@H]1CN(c2cncnc2)CCN1C(=O)NCCC1CCN(Cc2ccccc2)CC1 [22-19],10 to 100
14,C[C@@H]1CN(c2ccc(C#N)c(N(C)C)c2)CCN1C(=O)NCCC1CCN(Cc2ccccc2)CC1 [22-26],10 to 100
15,C[C@@H]1CN(c2cnc(C#N)cn2)CCN1C(=O)NCCC1CCN(Cc2ccccc2)CC1 [22-27],10 to 100
16,"COc1cc(N2CCN(C(=O)NCCC3CCN(Cc4ccccc4)CC3)[C@H](C)C2)ccc1C#N [22-28, (2R)-N-[2-(1-benzylpiperidin-4-yl)ethyl]-4-(4-cyano-3-methoxyphenyl)-2-methylpiperazine-1-carboxamide]",10 to 100
17,C[C@@H]1CN(c2ccnc(C(F)(F)F)c2)CCN1C(=O)NCCC1CCN(Cc2ccccc2)CC1 [22-29],10 to 100
18,N-(2-{1-[(4-hydroxyphenyl)methyl]piperidin-4-yl}ethyl)-4-phenoxybenzamide [11-10],100 to 1000

# Now from value to compound:
row,Ki [nM],Compound
1,100 to 1000,"C[C@@H]1CN(c2cnc(C#N)nc2)C[C@H](C)N1C(=O)NCCC1CCN(Cc2ccccc2)CC1 [23-1, (2S,6R)-N-[2-(1-benzylpiperidin-4-yl)ethyl]-4-(2-cyanopyrimidin-5-yl)-2,6-dimethylpiperazine-1-carboxamide]"
2,10 to 100,"C[C@@H]1CN(c2cnc(C#N)cn2)C[C@H](C)N1C(=O)NCCC1CCN(Cc2ccccc2)CC1 [23-2, (2R,6S)-N-[2-(1-benzylpiperidin-4-yl)ethyl]-4-(5-cyanopyrazin-2-yl)-2,6-dimethylpiperazine-1-carboxamide]"
3,10 to 100,"C[C@@H]1CN(c2ccc(C#N)nn2)C[C@H](C)N1C(=O)NCCC1CCN(Cc2ccccc2)CC1 [23-3, (2R,6S)-N-[2-(1-benzylpiperidin-4-yl)ethyl]-4-(6-cyanopyridazin-3-yl)-2,6-dimethylpiperazine-1-carboxamide]"
4,100 to 1000,C[C@H]1CN(c2ncc(C#N)cn2)C[C@H](C)N1C(=O)NCCC1CCN(Cc2ccccc2)CC1 [26-3]
5,< 10,"C[C@@H]1CN(c2ncc(C(F)(F)F)cn2)C[C@@H](C)N1C(=O)NCCC1CCN(Cc2ccccc2)CC1 [26-5, (2R,6R)-N-[2-(1-benzylpiperidin-4-yl)ethyl]-2,6-dimethyl-4-[5-(trifluoromethyl)pyrimidin-2-yl]piperazine-1-carboxamide]"
6,10 to 100,"C[C@@H]1CN(c2ncc(C(=O)NC3CC3)cn2)C[C@H](C)N1C(=O)NCCC1CCN(Cc2ccccc2)CC1 [27-1, 2-[(3R,5S)-4-{[2-(1-benzylpiperidin-4-yl)ethyl]carbamoyl}-3,5-dimethylpiperazin-1-yl]-N-cyclopropylpyrimidine-5-carboxamide]"
7,100 to 1000,C[C@@H]1CN(c2ncc(C(=O)N3CCCC3)cn2)C[C@H](C)N1C(=O)NCCC1CCN(Cc2ccccc2)CC1 [27-2]
8,100 to 1000,CC(C)N(C)C(=O)c1cnc(N2C[C@@H](C)N(C(=O)NCCC3CCN(Cc4ccccc4)CC3)[C@@H](C)C2)nc1 [27-3]
9,100 to 1000,C=CCNC(=O)c1cnc(N2C[C@@H](C)N(C(=O)NCCC3CCN(Cc4ccccc4)CC3)[C@@H](C)C2)nc1 [27-4]
10,100 to 1000,C[C@@H]1CN(c2ncc(C(=O)NCC3CC3)cn2)C[C@H](C)N1C(=O)NCCC1CCN(Cc2ccccc2)CC1 [27-5]
11,100 to 1000,C[C@@H]1CN(c2ncc(C(=O)NC3CCC3)cn2)C[C@H](C)N1C(=O)NCCC1CCN(Cc2ccccc2)CC1 [27-6]
12,100 to 1000,C[C@@H]1CN(c2ncc(C(=O)NCCF)cn2)C[C@H](C)N1C(=O)NCCC1CCN(Cc2ccccc2)CC1 [27-7]
13,100 to 1000,CCC(C)NC(=O)c1cnc(N2C[C@@H](C)N(C(=O)NCCC3CCN(Cc4ccccc4)CC3)[C@@H](C)C2)nc1 (stereo partly drawn) [27-8]
14,100 to 1000,CCN(C)C(=O)c1cnc(N2CCN(C(=O)NCCC3CCN(Cc4ccccc4)CC3)[C@H](C)C2)nc1 [27-9]
15,100 to 1000,CNC(=O)c1cnc(N2CCN(C(=O)NCCC3CCN(Cc4ccccc4)CC3)[C@H](C)C2)nc1 [27-10]
16,10 to 100,Cc1cc(C(=O)NCC(C)C)nc(N2CCN(C(=O)NCCC3CCN(Cc4ccccc4)CC3)[C@H](C)C2)n1 [27-11]
17,10 to 100,CC(C)CNC(=O)c1cnc(N2CCN(C(=O)NCCC3CCN(Cc4ccccc4)CC3)[C@H](C)C2)nc1 [27-12]
18,100 to 1000,Cc1cc(C(=O)NC(C)C)nc(N2CCN(C(=O)NCCC3CCN(Cc4ccccc4)CC3)[C@H](C)C2)n1 [27-13]
19,100 to 1000,Cc1cc(C(=O)NC2CC2)nc(N2CCN(C(=O)NCCC3CCN(Cc4ccccc4)CC3)[C@H](C)C2)n1 [27-14]
20,100 to 1000,CC(C)NC(=O)c1cnc(N2CCN(C(=O)NCCC3CCN(Cc4ccccc4)CC3)[C@H](C)C2)nc1 [27-15]
21,100 to 1000,CCNC(=O)c1cnc(N2CCN(C(=O)NCCC3CCN(Cc4ccccc4)CC3)[C@H](C)C2)nc1 [27-16]
22,100 to 1000,C[C@@H]1CN(c2ncc(C(=O)N(C)C)cn2)CCN1C(=O)NCCC1CCN(Cc2ccccc2)CC1 [27-17]
23,100 to 1000,CCN(C)C(=O)c1cc(C)nc(N2CCN(C(=O)NCCC3CCN(Cc4ccccc4)CC3)[C@H](C)C2)n1 [27-18]
24,100 to 1000,CCNC(=O)c1cc(C)nc(N2CCN(C(=O)NCCC3CCN(Cc4ccccc4)CC3)[C@H](C)C2)n1 [27-19]
